We go through eleven molecules from paper PMC6220877, “Modified Peptide Inhibitors of the Keap1–Nrf2 Protein–Protein Interaction Incorporating Unnatural Amino Acids” (Chembiochem, 2018).

“And” between values parts separate entries of the source, which are not always exact repeats. Identical values can stand only once. Marks after values point to notes of the source that are not given here. Where a SMILES comes first, the peptide text is derived from it. [ ]: non-standard residue; d: D form. The star is where a group is joined. 2Thi = N[C@@H](Cc1cccs1)C(=O)O; Cha = N[C@@H](CC1CCCCC1)C(=O)O; X1 = CC(C)C[C@H](N*)c1nnn[nH]1; Tle = CC(C)(C)[C@H](N)C(=O)O; Pip = O=C(O)[C@@H]1CCCCN1; Thz = O=C(O)[C@@H]1CSCN1; NHIsopentyl = CC(C)CCN*; NHBn = c1ccc(CN*)cc1

Holding throughout (assay type): binding
The target of experiment [1] is T1, Keap1 Kelch domain (Homo sapiens, UniProt Q14145).
T1 construct: made in house; host or cells: E. coli BL21 CodonPlus
T1 sequence (Q14145 321-609 limits assumed): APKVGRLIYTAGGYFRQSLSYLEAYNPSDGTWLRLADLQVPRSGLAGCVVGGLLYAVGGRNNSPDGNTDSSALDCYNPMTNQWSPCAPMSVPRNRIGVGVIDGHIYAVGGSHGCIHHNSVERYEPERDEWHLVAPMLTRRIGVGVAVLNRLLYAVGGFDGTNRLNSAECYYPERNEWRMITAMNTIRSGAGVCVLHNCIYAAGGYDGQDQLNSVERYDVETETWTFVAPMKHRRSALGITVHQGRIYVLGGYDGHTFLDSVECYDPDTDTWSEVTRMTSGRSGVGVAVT
Put plainly: Fluorescence polarisation (FP) competition assay. The settings on record: for IC50: FP assay, Keap1 Kelch domain; for Ki: estimated from FP IC50 by the method described by Kenakin (ref 14), read-out: FP calcd Ki; for Percentage inhibition in FP assay: 100 μM concentration of inhibitor.

The target of another experiment is T2, Keap1 Kelch protein (Homo sapiens, UniProt Q14145).
T2 construct: made in house; host or cells: E. coli BL21 CodonPlus
T2 sequence (Q14145 321-609 limits assumed): as above
Put plainly: Differential scanning fluorimetry (DSF) thermal shift screen. The settings on record: 10% DMSO, DPBS pH 7.4, 30 min at RT, 25-95 °C at 1 °C/min, triplicate, Keap1 Kelch Tm 47.0±0.1 °C; for ΔTm at 10 µM: pH 7.4, 10 μM peptide; for DSF ΔTm: 10 μM peptide. On the technique in general: In DSF a fluorescence change marks the thermal transition of the protein.

Experiment [2] concerns the target T1, Keap1 Kelch domain. Put plainly: Isothermal titration calorimetry (ITC). The settings on record: 25 °C, 50 μM protein, 500 μM peptide, 25 mM HEPES pH 7.4, 200 mM NaCl, 5% DMSO, mean of n≥2.
Experimental: Isothermal titration calorimetry experiments
The protein was initially dialysed overnight against buffer containing 25 mM HEPES, pH 7.4
and 200 mM NaCl. The protein was diluted to a concentration of 50 μM prior to ITC. Inhibitors
were diluted to an appropriate concentration in dialysis buffer so that the final solution
contained no more than 5% DMSO. To maintain a similar buffer composition for titrations, 5%
DMSO was added to the protein solution. All peptides in this study were used at a
concentration of 500 μM. There were no detectable solubility issues at these concentrations
of the peptides in the dialysis buffer. ITC experiments were performed with a MicroCal PEAQ-
ITC instrument (Malvern Instruments, UK).
speed of around 750 rpm. In total 30 injections were performed for one protein inhibitor
experiment with the first injection of 0.3 μL followed by 29 injections of 1.3 μL and a gap of
120 s between each injection. Data analyses were performed after subtraction of the heats of
dilution for each experiment. The thermodynamic parameters N (stoichiometry), Kd
(dissociation constant/binding affinity), ∆S (entropy change) and ∆H (enthalpy change) were
obtained by using the single-site-binding model of the PEAQ-ITC analysis software (Malvern
Instruments, UK). For each experiment, at least two titrations were performed. Titration data
were analysed independently, and the obtained values were averaged.

Experimental for Keap1 Kelch protein: DPBS at pH 7.4 was added to the wells of a MicroAmp® Optical 96-well reaction plate
containing the peptide inhibitor (10 µM, 10% final DMSO concentration, 40 µL final volume).
The plate was sealed using an optical adhesive cover and covered with aluminium foil to
protect the dye from light. The plate was then transferred to a plate centrifuge and spun down
briefly (200 g, 1 min, RT) to remove any bubbles and collect the solution at the bottom of the
wells. Following a 30 min incubation at RT, the plate was placed into a 7500 Real time PCR
machine and subjected to a standard protein melting protocol8 using the 7500 Software
1°C/min. All measurements were run in triplicate. The raw data were exported to MS Excel
and analysis was performed using a custom script provided by the Structural Genomics
Consortium Oxford.[8] The temperature range over which the protein unfolding occurred was
selected and the maximum and minimum (at temperatures below the maximum intensity)
fluorescence intensities within this range were determined. The processed data were fitted to
the Boltzmann equation by linear regression analysis using the Origin Pro software.

Regarding `CC(=O)N[C@@H](CC(=O)O)C(=O)N1CCC[C@H]1C(=O)N[C@@H](CCC(=O)O)C(=O)N[C@H](C(=O)NCC(=O)N[C@@H](CCC(=O)O)C(=O)N[C@@H](CC(C)C)C(=O)NCCC(C)C)[C@@H](C)O` [compound 6, Ac‐Asp‐Pro‐Glu‐Thr‐Gly‐Glu‐Leu‐NH‐isopentyl] (Ac-DPETGEL-NHIsopentyl), at Keap1 Kelch domain [1], the IC50 stood at 745 ± 126 nM and the inhibitory constant (Ki) was 313 nM. Also, the ΔTm at 10 µM at Keap1 Kelch protein was about 2 °C.
The corresponding values for `CC(=O)N[C@@H](CC(=O)O)C(=O)N1CCC[C@H]1C(=O)N[C@@H](CCC(=O)O)C(=O)N[C@H](C(=O)NCC(=O)N[C@@H](CCC(=O)O)C(=O)N[C@@H](CC(C)C)C(=O)NCc1ccccc1)[C@@H](C)O` [compound 7, Ac‐Asp‐Pro‐Glu‐Thr‐Gly‐Glu‐Leu‐NH‐Bn] (Ac-DPETGEL-NHBn) are 888 ± 28 nM, 373 nM and about 2 °C.
As to `CC(=O)N[C@@H](CC(=O)O)C(=O)N1CCC[C@H]1C(=O)N[C@@H](CCC(=O)O)C(=O)N[C@H](C(=O)NCC(=O)N[C@@H](CCC(=O)O)C(=O)N[C@@H](CC(C)C)c1nnn[nH]1)[C@@H](C)O` [compound 8, Ac‐Asp‐Pro‐Glu‐Thr‐Gly‐Glu‐Leu‐TET] (Ac-DPETGE-X1), at Keap1 Kelch domain [1], the IC50 turned out to be 374 ± 31 nM and the Ki was 157 nM. For the same molecule, on Keap1 Kelch protein, the ΔTm at 10 µM amounted to 6.2 ± 0.3 °C.
On to `CC(=O)N[C@@H](CC(=O)O)C(=O)N1CCC[C@H]1C(=O)N[C@@H](CCC(=O)O)C(=O)N[C@H](C(=O)NCC(=O)N[C@@H](CCC(=O)O)C(=O)N[C@H](C(=O)O)C(C)(C)C)[C@@H](C)O` [compound 9, Ac‐Asp‐Pro‐Glu‐Thr‐Gly‐Glu‐Tle‐OH] (Ac-DPETGE[Tle]-OH), for which, on Keap1 Kelch domain [1], the IC50 amounted to 235 ± 16 nM and the inhibitory constant (Ki) was 99 nM. The ΔTm at 10 µM at Keap1 Kelch protein was determined as 5.8 ± 0.6 °C. On Keap1 Kelch domain [2], the “ITC TΔS” value is -1.69 ± 0.34 kcal/mol, the “ITC ΔG” value was -8.59 ± 0.12 kcal/mol, the “ITC ΔH” value is -10.25 ± 0.21 kcal/mol and the Kd came out at 580 ± 90 nM.
For `CC(=O)N[C@@H](CC(=O)O)C(=O)N1CCC[C@H]1C(=O)N[C@@H](CCC(=O)O)C(=O)N[C@H](C(=O)NCC(=O)N[C@@H](CCC(=O)O)C(=O)N[C@@H](Cc1cccs1)C(=O)O)[C@@H](C)O` [compound 10, Ac‐Asp‐Pro‐Glu‐Thr‐Gly‐Glu‐Thi‐OH] (Ac-DPETGE[2Thi]-OH), on Keap1 Kelch domain [1], the IC50 was 578 ± 25 nM and the Ki is 243 nM. The ΔTm at 10 µM on Keap1 Kelch protein was determined as 5.3 ± 0.2 °C.
On to `CC(=O)N[C@@H](CC(=O)O)C(=O)N1CCC[C@H]1C(=O)N[C@@H](CCC(=O)O)C(=O)N[C@H](C(=O)NCC(=O)N[C@@H](CCC(=O)O)C(=O)N[C@@H](CC1CCCCC1)C(=O)O)[C@@H](C)O` [compound 11, Ac‐Asp‐Pro‐Glu‐Thr‐Gly‐Glu‐Cha‐OH] (Ac-DPETGE[Cha]-OH), for which, on Keap1 Kelch domain [1], the IC50 was determined as 85 ± 14 nM and the Ki was 36 nM. Also, the ΔTm at 10 µM at Keap1 Kelch protein stood at 5.8 ± 0.9 °C. Also, on Keap1 Kelch domain [2], the “ITC TΔS” value is -0.29 ± 0.001 kcal/mol, the “ITC ΔG” value is -9.57 ± 0.21 kcal/mol, the “ITC ΔH” value is -9.83 ± 0.22 kcal/mol and the Kd came out at 75 ± 6 nM.
Consider `CC(=O)N[C@@H](CC(=O)O)C(=O)N1CSC[C@H]1C(=O)N[C@@H](CCC(=O)O)C(=O)N[C@H](C(=O)NCC(=O)N[C@@H](CCC(=O)O)C(=O)N[C@@H](CC(C)C)C(=O)O)[C@@H](C)O` [compound 15, Ac‐Asp‐Thp‐Glu‐Thr‐Gly‐Glu‐Leu‐OH] (Ac-D[Thz]ETGEL-OH), for which, on Keap1 Kelch domain [1], the IC50 is 89 ± 6 nM and the inhibition constant Ki was 37 nM. Also, the ΔTm at 10 µM on Keap1 Kelch protein came out at 8.3 ± 0.3 °C. Also, on Keap1 Kelch domain [2], the “ITC TΔS” value was -3.84 ± 0.31 kcal/mol, the “ITC ΔG” value was -8.95 ± 0.17 kcal/mol, the “ITC ΔH” value is -12.83 ± 0.33 kcal/mol and the Kd is 310 ± 10 nM.
`CC(=O)N[C@@H](CC(=O)O)C(=O)N1CCCC[C@H]1C(=O)N[C@@H](CCC(=O)O)C(=O)N[C@H](C(=O)NCC(=O)N[C@@H](CCC(=O)O)C(=O)N[C@@H](CC(C)C)C(=O)O)[C@@H](C)O` [compound 16, Ac‐Asp‐Pip‐Glu‐Thr‐Gly‐Glu‐Leu‐OH] (Ac-D[Pip]ETGEL-OH): on Keap1 Kelch domain [1], the IC50 worked out at 1060 ± 280 nM and the Ki is 447 nM. Further, the thermal shift (ΔTm) at 10 µM at Keap1 Kelch protein is about 2 °C.
The corresponding values for “Ac-DPENGEL-OH [compound 14, Ac‐Asp‐Pro‐Glu‐Asn‐Gly‐Glu‐Leu‐OH]” are 3040 ± 310 nM, 1280 nM and about 0.5 °C.
Consider “Ac‐Asp‐Pro‐Glu‐Bap‐Gly‐Glu‐Leu‐OH [compound 13]”, for which the “Percentage inhibition in FP assay” value at Keap1 Kelch domain [1] amounted to 27 %^[c]. Also, the “DSF ΔTm” value on Keap1 Kelch protein was “≈ 0.5 °C and 0.5±0.1 °C”.
As for “Ac‐Asp‐Pro‐Glu‐hPhe‐Gly‐Glu‐Leu‐OH [compound 12]”, on Keap1 Kelch domain [1], the “Percentage inhibition in FP assay” value stood at 20 %^[c]. Also, the “DSF ΔTm” value at Keap1 Kelch protein is “≈ 0.5 °C and 0.8±0.2 °C”.

As usually defined, the IC50 is the point on the concentration scale where inhibition reaches its midpoint. A high value points to a need for much substance. For orientation: Ki means a measure of affinity in units of concentration, obtained from inhibition or displacement. Usually ΔTm stands for the change in melting temperature against a reference sample. The Kd is the constant that tells how readily two partners part at equilibrium.
